Tests used:
Assay type in all cases: cell-based, human
[1] = system: BCMA negative CD19 positive Raji Burkett lymphoma cell line; test: Lysis of BCMA negative cells by BCMA-CAR-T cells and/or Compound (1); settings: combination with BCMA-CAR-T cells or each alone
[2] = system: CRO-AP2 cells (B-cell Lymphoma); test: Soluble (shed) BCMA by ELISA
Protocol: (§1) […] cell lines, comprising 9 subtypes of lymphomas (see Table 1), were seeded at 1×10^5 cells/well in a total volume of 250 μl into a 96-well plate. The cells were cultured in RPMI medium supplemented with 10% FCS. Compound (22) was added to the cell cultures at a concentration of 10 μM, 1 μM, 100 nM, 10 nM, 1 nM, 100 pM, 10 pM, 1 pM, and 100 fM, and cell lines (8 from Hadassah Medical Center, 31 from Eurofins) were incubated at 37° C. for 24 hours with Compound (22). Following incubation, the cells were collected and BCMA levels were evaluated on the cell surface for cell-bound BCMA. Cells were stained with an anti-BCMA antibody (PE anti-human 19F2 BCMA, Biolegend), and cell surface BCMA levels were determined by FACS analysis (Mean Fluorescence Intensity. Soluble BCMA levels were analyzed by ELISA (Human BCMA/TNFRSF17 DuoSet kit: R&D Systems).

[3] = system: EB-2 cells (Burkitt's Lymphoma); test: Soluble (shed) BCMA by ELISA
Protocol: as §1

[4] = system: EB-3 cells (Burkitt's Lymphoma); test: Soluble (shed) BCMA by ELISA
Protocol: as §1

[5] = system: JVM-2 cells (Mantle Cell Lymphoma); test: Soluble (shed) BCMA by ELISA
Protocol: as §1

[6] = system: Jeko-1 cells (Mantle Cell Lymphoma); test: Soluble (shed) BCMA by ELISA
Protocol: as §1

[7] = system: Jiyoye cells (Burkitt's Lymphoma); test: Soluble (shed) BCMA by ELISA
Protocol: as §1

[8] = system: L-248 cells (Hodgkin's Lymphoma); test: Soluble (shed) BCMA by ELISA
Protocol: as §1

[9] = system: MC-116 cells (B-cell Lymphoma); test: Soluble (shed) BCMA by ELISA
Protocol: as §1

[10] = system: MHHH-PREB-1 cells (B-cell Lymphoma); test: Soluble (shed) BCMA by ELISA
Protocol: as §1

[11] = system: NU-DUL-1 cells (B-cell Lymphoma); test: Soluble (shed) BCMA by ELISA
Protocol: as §1

[12] = system: Namalwa cells (Burkitt's Lymphoma); test: Soluble (shed) BCMA by ELISA
Protocol: as §1

[13] = system: REC-1 cells (Mantle Cell Lymphoma); test: Soluble (shed) BCMA by ELISA
Protocol: as §1

[14] = system: RPMI-6666 cells (Hodgkin's Lymphoma); test: Soluble (shed) BCMA by ELISA
Protocol: as §1

[15] = system: Raji cells (Burkitt's Lymphoma); test: Soluble (shed) BCMA by ELISA
Protocol: as §1

[16] = system: Ramos cells (Burkitt's Lymphoma); test: Soluble (shed) BCMA by ELISA
Protocol: as §1

[17] = system: SR cells (Anaplastic Large Cell Lymphoma); test: Soluble (shed) BCMA by ELISA
Protocol: as §1

[18] = system: ST486 cells (DLBCL); test: Soluble (shed) BCMA by ELISA
Protocol: as §1

[19] = system: SUDHL-10 cells (DLBCL); test: Soluble (shed) BCMA by ELISA
Protocol: as §1

[20] = system: SUDHL-4 (Eurofins) cells (DLBCL); test: Soluble (shed) BCMA by ELISA
Protocol: as §1

[21] = system: TUR cells (Histiocytic Lymphoma); test: Soluble (shed) BCMA by ELISA
Protocol: as §1

[22] = system: U937 cells (Histiocytic Lymphoma); test: Soluble (shed) BCMA by ELISA
Protocol: as §1

[23] = system: […] cell lines, comprising 9 subtypes of lymphomas; test: Cell surface BCMA by FACS, lymphoma cell line panel
Protocol: as §1

[24] = Homo sapiens, read-out: Shed BCMA (pg/ml) EC50

`CN1C(=O)[C@@H](NC(=O)[C@H](CCC(F)(F)F)[C@H](CCC(F)(F)F)C(N)=O)N=C(c2ccccc2)c2ccccc21` [Compound 1, (2R,3S)—N-((3S)-1-methyl-2-oxo-5-phenyl-2,3-dihydro-1H-1,4-benzodiazepin-3-yl)-2,3-bis(3,3,3-trifluoropropyl)succinamide] was tested, and the “lysis of BCMA negative cells” value [1] was “neither the BCMA-CAR-T cells and Compound (1) combination nor each alone lyses”.
In the case of `Cc1cccc2c1NC(=O)[C@@H](NC(=O)[C@H](CCC(F)(F)F)[C@H](CCC(F)(F)F)C(N)=O)N=C2c1cccc(F)c1` [Compound (22), (2R,3S)—N-((3S)-5-(3-fluorophenyl)-9-methyl-2-oxo-2,3-dihydro-1H-1,4-benzodiazepin-3-yl)-2,3-bis(3,3,3-trifluoropropyl)succinamide], the “Shed BCMA (pg/ml) % Reduction” value [2] is reported as 91%, the “soluble BCMA 1 nM Compound (22)” value ([2]; 1 nM, 24 h) is reported as 1895.3 and the “soluble BCMA 10 nM Compound (22)” value ([2]; 10 nM, 24 h) is reported as 409.5. The “soluble BCMA 100 nM Compound (22)” value ([2]; 100 nM, 24 h) was 126.1, the EC50 [2, 24] was 4.8 nM and the “soluble BCMA 1 nM Compound (22)” value ([3]; EB2, 1 nM, 24 h) was >2000. The “soluble BCMA 10 nM Compound (22)” value ([3]; EB2, 10 nM, 24 h) was 597.7, the “soluble BCMA 100 nM Compound (22)” value ([3]; EB2, 100 nM, 24 h) was 479.4 and the “Shed BCMA (pg/ml) % Reduction” value ([3]; EB-2) was 70%. The EC50 ([3]; Homo sapiens, EB2, EB-2, read-out: Shed BCMA (pg/ml) EC50) was 7.1 nM, the “Shed BCMA (pg/ml) % Reduction” value [4] was “BLQ” and the EC50 [4, 24] was > 10000 nM. The “Shed BCMA (pg/ml) % Reduction” value [5] was 57%, the EC50 [5, 24] was 75.3 nM and the EC50 ([6]; Homo sapiens, JeKo-1, read-out: Shed BCMA (pg/ml) EC50) was 1.1 nM. For the same compound, the “soluble BCMA 10 nM Compound (22)” value ([6]; JEKO-1, 10 nM, 24 h) was 338, the “Shed BCMA (pg/ml) % Reduction” value ([6]; Jeko-1) was 76% and the “soluble BCMA 1 nM Compound (22)” value ([6]; Jeko-1, 1 nM, 24 h) was 1245.6. The “soluble BCMA 100 nM Compound (22)” value ([6]; Jeko-1, 100 nM, 24 h) was 305.6, the EC50 ([7]; Homo sapiens, JIYOYE, read-out: Shed BCMA (pg/ml) EC50) was 2.3 nM and the “soluble BCMA 10 nM Compound (22)” value ([7]; JIYOYE, 10 nM, 24 h) was 472.3. For the same compound, the “Shed BCMA (pg/ml) % Reduction” value ([7]; Jiyoye) was 81%, the “soluble BCMA 1 nM Compound (22)” value ([7]; Jiyoye, 1 nM, 24 h) was 1707.7 and the “soluble BCMA 100 nM Compound (22)” value ([7]; Jiyoye, 100 nM, 24 h) was 373.1. The “soluble BCMA” value ([7]; Jiyoye, FIG. 8B) was “decreased soluble BCMA”, the “Shed BCMA (pg/ml) % Reduction” value [8] was “BLQ” and the EC50 [8, 24] was > 10000 nM. For the same compound, the EC50 ([9]; Homo sapiens, MC116, MC-116, read-out: Shed BCMA (pg/ml) EC50) was 6.5 nM, the “soluble BCMA 1 nM Compound (22)” value ([9]; MC116, 1 nM, 24 h) was 1810.6 and the “soluble BCMA 10 nM Compound (22)” value ([9]; MC116, 10 nM, 24 h) was 414.8. For the same compound, the “soluble BCMA 100 nM Compound (22)” value ([9]; MC116, 100 nM, 24 h) was 303.7, the “Shed BCMA (pg/ml) % Reduction” value ([9]; MC-116) was 76% and the “Shed BCMA (pg/ml) % Reduction” value [10] was 97%. For the same compound, the “soluble BCMA 1 nM Compound (22)” value ([10]; 1 nM, 24 h) was 227.3, the “soluble BCMA 10 nM Compound (22)” value ([10]; 10 nM, 24 h) was 75.4 and the “soluble BCMA 100 nM Compound (22)” value ([10]; 100 nM, 24 h) was 60.1. The EC50 ([10]; Homo sapiens, B-cell, read-out: Shed BCMA (pg/ml) EC50) was 0.6 nM, the “Shed BCMA (pg/ml) % Reduction” value [11] was 91% and the EC50 [11, 24] was 1 nM. The EC50 ([12]; Homo sapiens, Namalwa, read-out: Shed BCMA (pg/ml) EC50) was 0.6 nM, the “soluble BCMA 10 nM Compound (22)” value ([12]; NAMALWA, 10 nM, 24 h) was 66.6 and the “Shed BCMA (pg/ml) % Reduction” value ([12]; Namalwa) was 95%. The “soluble BCMA 1 nM Compound (22)” value ([12]; Namalwa, 1 nM, 24 h) was 87.5, the “soluble BCMA 100 nM Compound (22)” value ([12]; Namalwa, 100 nM, 24 h) was 67.4 and the “Shed BCMA (pg/ml) % Reduction” value [13] was “BLQ”. For the same compound, the EC50 ([13]; Homo sapiens, Rec1, read-out: Shed BCMA (pg/ml) EC50) was > 10000 nM, the “Shed BCMA (pg/ml) % Reduction” value [14] was 92% and the EC50 [14, 24] was 9.1 nM. For the same compound, the “Shed BCMA (pg/ml) % Reduction” value [15] was 99%, the “soluble BCMA 1 nM Compound (22)” value ([15]; 1 nM, 24 h) was 81.4 and the “soluble BCMA 10 nM Compound (22)” value ([15]; 10 nM, 24 h) was 29.7. For the same compound, the “soluble BCMA 100 nM Compound (22)” value ([15]; 100 nM, 24 h) was 26.3, the EC50 [15, 24] was 0.3 nM and the “Shed BCMA (pg/ml) % Reduction” value [16] was 76%. For the same compound, the “soluble BCMA 1 nM Compound (22)” value ([16]; 1 nM, 24 h) was >2000, the “soluble BCMA 10 nM Compound (22)” value ([16]; 10 nM, 24 h) was 613.3 and the “soluble BCMA 100 nM Compound (22)” value ([16]; 100 nM, 24 h) was 504.3. For the same compound, the EC50 [16, 24] was 8.6 nM, the “Shed BCMA (pg/ml) % Reduction” value [17] was “BLQ” and the EC50 [17, 24] was > 10000 nM. For the same compound, the “Shed BCMA (pg/ml) % Reduction” value [18] was 90%, the EC50 [18, 24] was 0.9 nM and the “Shed BCMA (pg/ml) % Reduction” value [19] was 97%. For the same compound, the EC50 ([19]; Homo sapiens, SU-DHL10, read-out: Shed BCMA (pg/ml) EC50) was 0.9 nM, the “Shed BCMA (pg/ml) % Reduction” value [20] was 87% and the EC50 ([20]; Homo sapiens, SU-DHL-4, read-out: Shed BCMA (pg/ml) EC50) was 6.6 nM. For the same compound, the “Shed BCMA (pg/ml) % Reduction” value [21] was “BLQ”, the EC50 [21, 24] was > 10000 nM and the “Shed BCMA (pg/ml) % Reduction” value [22] was “BLQ”. For the same compound, the EC50 ([22]; Homo sapiens, U-937, read-out: Shed BCMA (pg/ml) EC50) was > 10000 nM, the “cell-bound BCMA levels” value ([23]; B-ALL, histiocytic lymphoma, anaplastic large cell lymphoma, cutaneous T-cell lymphoma cell lines) was “did not increase cell-bound BCMA levels” and the “cell-bound BCMA levels” value ([23]; cell lines derived from Mantle Cell Lymphoma, DLBCL, Burkitt's Lymphoma, B-cell Lymphoma, 24 h) was “increased cell-bound BCMA levels”. For the same compound, the “cell-bound BCMA levels” value ([23]; cell lines from Hodgkin's Lymphoma patients) was “increased cell-bound BCMA levels”, the “increase of BCMA expression” value ([23]; certain lymphomas) was “Compound (22) increases BCMA expression in certain lymphomas by 2-9 fold” and the mBCMA ([23]; certain lymphomas) was “increases mBCMA”.

Source: US20200085839A1, “COMBINATION OF IMMUNOTHERAPEUTICS AND BISFLUOROALKYL-1,4-BENZODIAZEPINONE COMPOUNDS FOR TREATING LYMPHOMAS” (Ayala Pharmaceuticals Inc., priority 2018, published 2020)
